Assays:
[1] = Inhibition of HCV 1a RNA dependent RNA polymerase; design: species or system Hepacivirus hominis
[2] = system: Hepatitis C virus; assay: Inhibition of HCV 1a replication by cell based assay; type: functional, organism-based, Hepacivirus hominis

SMILES | IC50 [1] [nM] | EC50 [2] [nM]
CC(C)CCC1(C)C(=O)C(C2=NS(=O)(=O)c3cc(NS(C)(=O)=O)ccc3N2)=C(O)c2ccccc21 (stereo not given) | 7 | 38
CC1(CCCC2CCCCC2)C(=O)C(C2=NS(=O)(=O)c3cc(NS(C)(=O)=O)ccc3N2)=C(O)c2ccccc21 (stereo not given) | 791 | 
CCC1(CCC(C)C)C(=O)C(C2=NS(=O)(=O)c3cc(NS(C)(=O)=O)ccc3N2)=C(O)c2ccccc21 (stereo not given) | 17 | 49
CC(C)(C)CCCCC1(C)C(=O)C(C2=NS(=O)(=O)c3cc(NS(C)(=O)=O)ccc3N2)=C(O)c2ccccc21 (stereo not given) | 138 | 
CC1(CC2CCCCC2)C(=O)C(C2=NS(=O)(=O)c3cc(NS(C)(=O)=O)ccc3N2)=C(O)c2ccccc21 (stereo not given) | 13 | 121

Now from value to molecule:

IC50 [1] [nM] | EC50 [2] [nM] | SMILES
10 | 8 | CC(C)(C)CCC1(C)C(=O)C(C2=NS(=O)(=O)c3cc(NS(C)(=O)=O)ccc3N2)=C(O)c2ccccc21 (stereo not given)
15 | 52 | CCCCC1(C)C(=O)C(C2=NS(=O)(=O)c3cc(NS(C)(=O)=O)ccc3N2)=C(O)c2ccccc21 (stereo not given)
20 |  | CCCC1(C)C(=O)C(C2=NS(=O)(=O)c3cc(NS(C)(=O)=O)ccc3N2)=C(O)c2ccccc21 (stereo not given)
99 | 603 | CCCC1(CCC)C(=O)C(C2=NS(=O)(=O)c3cc(NS(C)(=O)=O)ccc3N2)=C(O)c2ccccc21

Source: ChEMBL document CHEMBL1141643, “Synthesis and SAR of novel 1,1-dialkyl-2(1H)-naphthalenones as potent HCV polymerase inhibitors” (Bioorg Med Chem Lett, 2008)
